Test results from US9163011B2, “Oxazine derivatives and their use in the treatment of disease” (NOVARTIS AG, priority 2011, dated 2015).

Experiments:
[1] = test system: Soluble Abeta40 levels in the rat brain and CSF; assay: Test 5: In Vivo Inhibitory Activity (Abeta lowering in rat brain and CSF); details: male Sprague-Dawley rats, oral gavage, 10 micromoles per kilogram, 4 hours prior to sacrifice; n.s.=not statistically significant
Method: Test 5: In Vivo Inhibitory Activity of Example Compounds
Male Sprague-Dawley rats, 220-280 g weight, (Charles River, France) were dosed by oral gavage with vehicle alone (0.1% Tween80, 0.5% methylcellulose in water) or with compound suspended in vehicle at a dose of 10 micromoles compound per kilogram body weight, 4 hours prior to sacrifice. The 4 hour timepoint was selected in order to compare the activity of compounds that have sufficient pharmacokinetic and biodistribution properties to reduce total brain Abeta within approximately three half-lives of the rat brain Abeta40 peptide.
Immediately prior to sacrifice, anaesthetized rat (spontaneous inhalation, 2-5% Isoflurane and air) were fixed in a stereotaxic apparatus on a raised platform, with anesthesia maintained though a nose cone. The angle of the head was tilted downward, perpendicular to the body, and a hypodermic needle lowered through the skin behind the occipital ridge, into the Cisterna magna. Cerebrospinal fluid (CSF) was withdrawn (˜50-100 μL), dispensed into tubes (protein Lo-bind Eppendorf tubes for Abeta40 analysis, normal Eppendorph tubes for compound analysis), frozen on dry ice and stored at −80° C. until analysis. Rats were then immediately decapitated under anesthesia, trunk blood collected for analysis of compound levels and the brain retrieved. One half-forebrain was dissected by removing the cerebellum and olfactory bulbs, frozen in three pieces on a metal plate pre-cooled on frozen CO2 and stored in tubes at −80° C. until analysis for Abeta40. For the other half-brain, olfactory bulbs were discarded and a sagittal slice taken from the medial aspect, weighing ˜200-400 mg, placed in glass HPLC tubes and frozen on dry ice until analysis for compound levels.
Soluble Abeta40 levels in the rat brain and CSF were quantified using a Meso Scale Discovery (MSD) 96-well MULTI-ARRAY human/rodent (4G8) Abeta40 Ultrasensitive Assay (#K110FTE-3, Meso Scale Discovery, Gaithersburg, USA). Forebrain sample homogenates were prepared by sonication in 9 volumes (w/v) of ice cold TBA. Fifty μL of 2% TX-100 in TBS-complete was added to 50 μL aliquots of the homogenate to reach a final concentration of 1% TX-100 in a 1:20 dilution. Samples were incubated on ice for 15 min interrupted with 3 short vortexing steps, then centrifuged (100 000×g, 4° C., 15 min), and 50 μL of supernatant collected. This was further diluted 1:5 with 3% Blocker A solution from the MSD kit to a final dilution of 1:100 and applied to the MSD plate. CSF samples containing blood were excluded. All other CSF samples were diluted with 1% Blocker A solution (from manufacturers kit) to reach a 1:20 CSF dilution. Calibration curves were prepared in 1% Blocker A solution spiked with synthetic Abeta1-40 peptide. Samples and calibration standards were applied in duplicate at a volume of 25 μL per well. Abeta40 concentrations of samples were estimated from the standard curve using SOFTmax PRO4.0.

Human BACE-1 = Human BACE-1 (Homo sapiens (Human), UniProt P56817); assay: Test 1: Inhibition of Human BACE-1; assay type: biochemical; details: recombinant BACE-1, pH 4.5, 1 hour preincubation
Chain of Human BACE-1 (P56817 46-457): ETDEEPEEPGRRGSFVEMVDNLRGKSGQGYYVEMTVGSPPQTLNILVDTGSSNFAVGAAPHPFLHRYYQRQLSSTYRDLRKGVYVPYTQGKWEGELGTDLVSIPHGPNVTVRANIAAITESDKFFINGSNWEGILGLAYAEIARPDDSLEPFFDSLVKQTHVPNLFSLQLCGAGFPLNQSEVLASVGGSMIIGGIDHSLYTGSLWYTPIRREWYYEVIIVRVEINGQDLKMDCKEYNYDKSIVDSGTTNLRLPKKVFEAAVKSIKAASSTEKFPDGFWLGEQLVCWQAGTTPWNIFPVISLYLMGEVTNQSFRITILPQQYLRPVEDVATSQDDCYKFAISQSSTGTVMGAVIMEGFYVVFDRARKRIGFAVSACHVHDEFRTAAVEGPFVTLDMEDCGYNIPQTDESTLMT
Method: Test 1: Inhibition of Human BACE-1
(§1) Recombinant BACE-1 (extracellular domain, expressed in baculovirus and purified using standard methods) at 0.1 to 1 nM concentrations is incubated with the test compound at various concentrations for 1 hour at room temperature in 100 mM acetate buffer, pH 4.5, containing 0.1% CHAPS. Activity was measured using a final concentration of 3 μM of the fluorescence-quenched substrate Q-C(HSO3)-Ile-Asp-Leu-Ala-Val-Leu-Asp-HN—CH2—CH2-Mca, where Q=2-nitro-5-amino benzoic acid and Mca=7-methoxy-4-coumarinyl acetic acid. Catalytic turnover was monitored in a Spectramax Gemini fluorescence plate reader (Molecular Devices) in black 96-well microplates using excitation/emission wavelength of 325 nm and 400 nm, respectively. Fluorescence increase was followed for 15 min, in 1 minute's intervals. The fluorescence/time slopes were calculated from duplicate wells and from wells without inhibitor and the IC50 values were calculated using a logistic 4-parameter model.

Human BACE-2 = Human BACE-2 (Homo sapiens (Human), UniProt Q9Y5Z0); assay: Test 2: Inhibition of Human BACE-2; assay type: biochemical; details: recombinant BACE-2, pH 4.5, 1 hour preincubation
Chain of Human BACE-2 (Q9Y5Z0 63-473): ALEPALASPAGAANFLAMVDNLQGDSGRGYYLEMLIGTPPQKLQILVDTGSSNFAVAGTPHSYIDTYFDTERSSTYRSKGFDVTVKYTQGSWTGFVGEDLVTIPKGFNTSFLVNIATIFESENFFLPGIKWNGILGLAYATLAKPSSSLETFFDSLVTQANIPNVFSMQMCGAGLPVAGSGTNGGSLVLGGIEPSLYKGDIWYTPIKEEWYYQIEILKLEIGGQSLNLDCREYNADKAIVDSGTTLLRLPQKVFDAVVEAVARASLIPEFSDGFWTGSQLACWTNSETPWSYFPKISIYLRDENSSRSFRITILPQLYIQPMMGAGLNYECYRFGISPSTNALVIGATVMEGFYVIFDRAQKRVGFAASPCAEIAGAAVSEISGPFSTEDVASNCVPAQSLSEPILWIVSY
Method: Test 2: Inhibition of Human BACE-2
as §1, with “BACE-2” for “BACE-1”

[2] = Test 4: Inhibition of Cellular Release of Amyloid Peptide 1-40; assay type: cell-based, Chinese hamster; details: Cricetulus griseus; CHO cells with human APP, 24 hours with compound; read-out: Test 4 Amyloid-β1-40 release IC50
Method: The cells are plated at a density of 8000 cells/well into 96-well microtiter plates and cultivated for 24 hours in DMEM cell culture medium containing 10% FCS. The test compound is added to the cells at various concentrations, and the cells are cultivated for 24 hours in the presence of the test compound. […] The potency of the compound is calculated from the percentage of inhibition of amyloid peptide release as a function of the test compound concentration.

IC50 (Human BACE-1)	IC50 (Human BACE-2)	IC50 [2]	SMILES	Abeta lowering in rat CSF [1]	Abeta lowering in rat forebrain [1]
			CC1(c2cc(NC(=O)c3ncc(C#N)cc3Cl)ccc2F)N=C(N)OCC1(F)F (stereo not shown) [39 WO 2011/069934 A1, reference compound]	−8.2% (n.s.)	−1.4% (n.s.)
			CC1(C)OC(N)=NC(C)(c2cc(NC(=O)c3ncc(C#N)cc3Cl)ccc2F)C1(F)F (stereo not shown) [22 WO 2011/069934 A1, reference compound]	−17.9%	−7.8% (n.s.)
			C[C@]1(c2nc(NC(=O)c3ncc(C(F)(F)F)cc3Cl)ccc2F)N=C(N)OCC1(F)F [Example 7, 3-Chloro-5-trifluoromethyl-pyridine-2-carboxylic acid [6-((R)-2-amino-5,5-difluoro-4-methyl-5,6-dihydro-4H-[1,3]oxazin-4-yl)-5-fluoro-pyridin-2-yl]-amide]	−67.9%	−63.6%
			CC1(c2cc(NC(=O)c3nn(C(F)F)cc3Cl)ccc2F)N=C(N)OCC1(F)F (stereo not shown) [71 WO 2011/069934 A1, reference compound]	−30.4%	5.6% (n.s.)
360 nM	95 nM	88 nM	C[C@]1(c2nc(NC(=O)c3ncccc3Cl)ccc2F)N=C(N)OCC1(F)F [Example 20, 3-Chloro-pyridine-2-carboxylic acid [6-((R)-2-amino-5,5-difluoro-4-methyl-5,6-dihydro-4H-[1,3]oxazin-4-yl)-5-fluoro-pyridin-2-yl]-amide]		
240 nM	8200 nM	62 nM	C[C@]1(c2nc(NC(=O)c3ncc(C#CCO)cc3N)ccc2F)N=C(N)OCC1(F)F [Example 17, 3-Amino-5-(3-hydroxy-prop-1-ynyl)-pyridine-2-carboxylic acid [6-((R)-2-amino-5,5-difluoro-4-methyl-5,6-dihydro-4H-[1,3]oxazin-4-yl)-5-fluoro-pyridin-2-yl]-amide]		
8700 nM	> 10000 nM	2900 nM	C[C@]1(c2nc(NC(=O)c3ncc(OCCCl)nc3N)ccc2F)N=C(N)OCC1(F)F [Example 23, 3-Amino-5-(2-chloro-ethoxy)-pyrazine-2-carboxylic acid [6-((R)-2-amino-5,5-difluoro-4-methyl-5,6-dihydro-4H-[1,3]oxazin-4-yl)-5-fluoro-pyridin-2-yl]-amide]		
1200 nM	> 10000 nM	310 nM	C[C@]1(c2nc(NC(=O)c3ncc(OCCCF)nc3N)ccc2F)N=C(N)OCC1(F)F [Example 12, 3-Amino-5-(3-fluoro-propoxy)-pyrazine-2-carboxylic acid [6-((R)-2-amino-5,5-difluoro-4-methyl-5,6-dihydro-4H-[1,3]oxazin-4-yl)-5-fluoro-pyridin-2-yl]-amide]		
110 nM	27 nM	57 nM	C[C@]1(c2nc(NC(=O)c3ncc(OCF)cc3Cl)ccc2F)N=C(N)OCC1(F)F [Example 26, 3-Chloro-5-fluoromethoxy-pyridine-2-carboxylic acid [6-((R)-2-amino-5,5-difluoro-4-methyl-5,6-dihydro-4H-[1,3]oxazin-4-yl)-5-fluoro-pyridin-2-yl]-amide]		
			CC1(C)OC(N)=N[C@](C)(c2nc(NC(=O)c3ncc(C#N)cc3Cl)ccc2F)C1(F)F [Example 3, 3-Chloro-5-cyano-pyridine-2-carboxylic acid [6-((R)-2-amino-5,5-difluoro-4,6,6-trimethyl-5,6-dihydro-4H-[1,3]oxazin-4-yl)-5-fluoro-pyridin-2-yl]-amide]	−35.3%	−20.0%
12 nM	66 nM	7 nM	Cc1cc(C#N)cnc1C(=O)Nc1ccc(F)c([C@@]2(C)N=C(N)OCC2(F)F)n1 [Example 1, 5-Cyano-3-methyl-pyridine-2-carboxylic acid [6-((R)-2-amino-5,5-difluoro-4-methyl-5,6-dihydro-4H-[1,3]oxazin-4-yl)-5-fluoro-pyridin-2-yl]-amide]		
190 nM	580 nM	60 nM	C[C@]1(c2nc(NC(=O)c3ncc(C(F)F)nc3N)ccc2F)N=C(N)OCC1(F)F [Example 22, 3-Amino-5-difluoromethyl-pyrazine-2-carboxylic acid [6-((R)-2-amino-5,5-difluoro-4-methyl-5,6-dihydro-4H-[1,3]oxazin-4-yl)-5-fluoro-pyridin-2-yl]-amide]		
830 nM	2900 nM	440 nM	C[C@]1(c2nc(NC(=O)c3ncc(OCC(F)F)nc3N)ccc2F)N=C(N)OCC1(F)F [Example 11, 3-Amino-5-(2,2-difluoro-ethoxy)-pyrazine-2-carboxylic acid [6-((R)-2-amino-5,5-difluoro-4-methyl-5,6-dihydro-4H-[1,3]oxazin-4-yl)-5-fluoro-pyridin-2-yl]-amide]		
83 nM	840 nM	81 nM	COCC#Cc1cnc(C(=O)Nc2ccc(F)c([C@@]3(C)N=C(N)OCC3(F)F)n2)c(Cl)c1 [Example 21, 3-Chloro-5-(3-methoxy-prop-1-ynyl)pyridine-2-carboxylic acid [6-((R)-2-amino-5,5-difluoro-4-methyl-5,6-dihydro-4H-[1,3]oxazin-4-yl)-5-fluoro-pyridin-2-yl]-amide]		
540 nM	490 nM	180 nM	C[C@]1(c2nc(NC(=O)c3nccnc3N)ccc2F)N=C(N)OCC1(F)F [Example 31, 3-Amino-pyrazine-2-carboxylic acid [6-((R)-2-amino-5,5-difluoro-4-methyl-5,6-dihydro-4H-[1,3]oxazin-4-yl)-5-fluoro-pyridin-2-yl]-amide]		
1900 nM	10000 nM	840 nM	[2H]C([2H])([2H])C([2H])([2H])Oc1cnc(C(=O)Nc2ccc(F)c([C@@]3(C)N=C(N)OCC3(F)F)n2)c(N)n1 [Example 28, 3-Amino-5-(penta-deutero-ethoxy)-pyrazine-2-carboxylic acid [6-((R)-2-amino-5,5-difluoro-4-methyl-5,6-dihydro-4H-[1,3]oxazin-4-yl)-5-fluoro-pyridin-2-yl]-amide]		
